Measured values taken from the CheMixHub ionic liquid set.

Test: xn = mol fraction of the nth substance listed

CCCC[N+]1(C)CCCC1.F[B-](F)(F)F + CC1COC(=O)O1 + CCCC[N+]1(C)CCCC1.O=S(=O)([N-]S(=O)(=O)C(F)(F)F)C(F)(F)F
293.15 K, 100 kPa, x2 = 0.4706, x3 = 0.05882
Conditions	electrical conductivity [S/m]	viscosity [mPa·s]
–	0.96	7.6

CC(=O)[O-].CCC[N+]1(C)CCN(C)CC1 + CC#N
Conditions	electrical conductivity [S/m]
298 K, 101 kPa, x2 = 0.791	1.76

CCO + CC(=O)[O-].CC[n+]1ccn(C)c1
101 kPa, x1 = 1
Conditions	viscosity [mPa·s]
318.15 K	0.755
338.15 K	0.543

CC(=O)[O-].CC[NH2+]CC + CC(C)=O
298.15 K, 101 kPa
Conditions	electrical conductivity [S/m]	viscosity [mPa·s]
x1 = 0.0095	0.001	–
x1 = 0.0238	0.033	–
x1 = 0.0523	0.085	–
x1 = 0.0729	0.131	–
x1 = 0.098	–	0.734
x1 = 0.0983	0.171	–
x1 = 0.194	–	1.092
x1 = 0.1981	0.328	–
x1 = 0.2979	0.427	–
x1 = 0.299	–	2.01
x1 = 0.401	0.479	–
x1 = 0.402	–	3.5
x1 = 0.4945	0.505	–
x1 = 0.5	–	5.74
x1 = 0.599	–	8.92
x1 = 0.6022	0.459	–
x1 = 0.701	–	14.91
x1 = 0.7021	0.427	–
x1 = 0.7971	0.387	–
x1 = 0.802	–	24.3
x1 = 0.9002	0.341	–
x1 = 0.903	–	38.6
x2 = 0.003	–	58.7
